Data reported in US20250122155A1, “NOVEL INDOLE DERIVATIVE, PHARMACEUTICAL COMPOSITION COMPRISING SAME, AND USE THEREOF” (MITOIMMUNE THERAPEUTICS INC., priority 2021, published 2025).

Legend:
NIH/3T3 cells = assay: Cell death protective effect in fibroblasts against Erastin, glutamate and RSL3 (LDH); format: cell-based, mouse; settings: 24 hours
Protocol: (§1) In order to identify the protective effect on fibroblasts, NIH/3T3 cells were divided into 96-well plates by 8×10^3 and cultured for 18 to 24 hours. The compounds of Examples were diluted to final concentrations of 0.1 and 1 μM, treated in each well, and incubated for 15 to 20 minutes. Erastin, glutamate, and RSL3 were treated to have final concentrations of 3 μM, 30 mM, and 3 μM, respectively, and cultured for 24 hours. In order to identify the protective effect of each compound, the degree of LDH extracellular secretion was measured using cytotoxicity LDH assay kit [Dojindo; CK12]. Briefly, at the time when the treatment of the cells with Erastin, glutamate, and RSL3 for 24 hours is completed, the supernatants containing the cells are taken by 70 μL and transferred to a new 96-well plate. The assay buffer included in the kit is added in an amount of 70 μL/well (the same amount as the sample) thereto, and then the plate is wrapped with a foil and the reaction is performed at room temperature for 15 minutes. After observing the changed color of the sample, the stop solution was added in an amount of 35 μL/well thereto, and then the 00 inhibition value was calculated by measuring the absorbance value at a wavelength of 490 nm using an iD3 spectrophotometer.

H9C2 cells = assay: Cell death protective effect in cardiac myocytes against Erastin, glutamate and RSL3 (LDH); format: cell-based, rat; settings: 24 hours
Protocol: as §1, with “on cardiac cells, H9C2” for “on fibroblasts, NIH/3T3”, “by 1×10^4” for “by 8×10^3”, “of 1” for “of 3”, “μM, 25” for “μM, 30”, “and 0.5” for “and 3”, “minutes.” for “minutes. After observing the changed color of the sample, the stop solution was added in an amount of 35 μL/well thereto, and then the 00 inhibition value was calculated by measuring the absorbance value at a wavelength of 490 nm using an iD3 spectrophotometer.”

[1] = NIH/3T3, Erastin 3 μM, compound 0.1 μM
[2] = NIH/3T3, Erastin 3 μM, compound 1.0 μM
[3] = NIH/3T3, Glutamate 30 mM, compound 0.1 μM
[4] = NIH/3T3, Glutamate 30 mM, compound 1.0 μM
[5] = NIH/3T3, RSL3 3 μM, compound 0.1 μM
[6] = NIH/3T3, RSL3 3 μM, compound 1.0 μM
[7] = H9C2, Erastin 1 μM, compound 0.1 μM
[8] = H9C2, Erastin 1 μM, compound 1.0 μM
[9] = H9C2, Glutamate 25 mM, compound 0.1 μM
[10] = H9C2, Glutamate 25 mM, compound 1.0 μM
[11] = H9C2, RSL3 0.5 μM, compound 0.1 μM
[12] = H9C2, RSL3 0.5 μM, compound 1.0 μM

SMILES | inhibition (%) (NIH/3T3 cells; [1]) | inhibition (%) (NIH/3T3 cells; [2]) | inhibition (%) (NIH/3T3 cells; [3]) | inhibition (%) (NIH/3T3 cells; [4]) | inhibition (%) (NIH/3T3 cells; [5]) | inhibition (%) (NIH/3T3 cells; [6]) | inhibition (%) (H9C2 cells; [7]) | inhibition (%) (H9C2 cells; [8]) | inhibition (%) (H9C2 cells; [9]) | inhibition (%) (H9C2 cells; [10]) | inhibition (%) (H9C2 cells; [11]) | inhibition (%) (H9C2 cells; [12])
COCCOCc1cc(NC2CCOCC2)c2[nH]c(-c3ccccc3)cc2c1 [Example 1, 5-(2-methoxyethoxymethyl)-2-phenyl-N-tetrahydropyran-4-yl-1H-indol-7-amine] | 99 | 100 | 100 | 100 | 100 | 100 | 100 | 100 | 96 | 97 | 100 | 98
COCCOCc1cc(NCC2CCOCC2)c2[nH]c(-c3ccccc3)cc2c1 [Example 4, 5-2(methoxyethoxymethyl)-2-phenyl-N-(tetrahydropyran-4-ylmethyl)-1H-indol-7-amine] | 99 | 99 | 100 | 100 | 100 | 100 | 100 | 100 | 97 | 96 | 97 | 96
COCCOCc1cc(NC2CCN(C(C)=O)CC2)c2[nH]c(-c3ccccc3)cc2c1 [Example 30, 1-[4-[[5-(2-methoxyethoxymethyl)-2-phenyl-1H-indol-7-yl]amino]piperidyl]-1-ethanone] | 6 | 100 | 100 | 100 | 100 | 100 | 0 | 100 | 90 | 98 | 0 | 96
CCOCCOCc1cc(NC2CCCC2)c2[nH]c(-c3ccccc3)cc2c1 [Example 36, N-cyclopentyl-5-(2-ethoxyethoxymethyl)-2-phenyl-1H-indol-7-amine] | 99 | 100 | 100 | 100 | 100 | 100 | 100 | 100 | 99 | 97 | 98 | 99
COCCOCCOCc1cc(NC2CCCC2)c2[nH]c(-c3ccccc3)cc2c1 [Example 39, N-cyclopentyl-5-[2-(2-methoxyethoxy)ethoxymethyl]-2-phenyl-1H-indol-7-amine] | 99 | 100 | 99 | 100 | 100 | 100 | 100 | 100 | 96 | 96 | 96 | 96
COCCOCc1cc(NCc2ccncc2)c2[nH]c(-c3ccccc3)cc2c1 [Example 45, 5-(2-methoxyethoxymethyl)-2-phenyl-N-(4-pyridylmethyl)-1H-indol-7-amine] | 100 | 100 | 0 | 97 | 0 | 100 | 100 | 100 | 98 | 96 | 99 | 97
COCCOCc1cc(NC2CCOCC2)c2[nH]cc(C)c2c1 [Example 50, 5-(2-methoxyethoxymethyl)-3-methyl-N-tetrahydropyran-4-yl-1H-indol-7-amine] | 0 | 8 | 99 | 100 | 100 | 100 | 16 | 18 | 0 | 49 | 7 | 4
COCCOCc1cc(NC2CCNCC2)c2[nH]c(-c3ccccc3)cc2c1 [Example 64, 5-((2-methoxyethoxy)methyl)-2-phenyl-N-(piperidin-4-yl)-1H-indol-7-amine] | 99 | 100 | 99 | 100 | 100 | 100 | 100 | 100 | 97 | 97 | 90 | 95
CCOC(=O)c1ccc(NC2CCCCC2)c(N)c1 [Ferrostatin-1, reference compound] | 17 | 99 | 97 | 97 | 100 | 100 | 100 | 100 | 98 | 97 | 96 | 96
